Measurements: article PMC10301570 (Molecules, 2023)
Read-outs that look alike come from different tables or passages of the source.

Columns and labels:
[1] = In-vivo pharmacokinetic study in rats after oral administration of EECQ extract; settings: serum, oral 400 mg/Kg EECQ, mean ± SD, n = 6; for AUC(0-inf): male, SD, po; for AUC(0-inf) / AUC(0-t) / Cmax / Tmax / half-life: rat
Method: Liquid-liquid extraction was employed for processing samples of quercetin and t-res in rat serum. CS/QC samples were prepared using 10 μL of sample and 90 μL of control serum or 100 μL serum (in vivo) samples were treated with 100 μL of 1 mg/mL β-glucuronidase enzyme in 100 mM ammonium acetate buffer (pH 5) and incubated for 2 h at 37 °C. The reaction mixtures were precipitated with 200 μL of 0.1% FA in methanol-containing IS (FFA). Samples were vortexed for 5 min at 2000 rpm, and then ethyl acetate was added, the sample was vortexed and centrifuged at 10,000 rpm for 10 min. The organic layer was then collected and dried at 37 °C using a TurboVap and nitrogen stream. The dried residues were reconstituted with mobile phase and injected into LC-MS/MS for analysis.
The pharmacokinetic study of quercetin and t-res was performed by an oral administration of EECQ extract (400 mg/kg) in male SD rats (n = 6). The EECQ oral dose was selected based on our previous publication. […] Blood samples were collected from the retro-orbital plexus of rats at predetermined time points 0.25, 0.5, 1, 2, 4, 8, 12, 24, and 48 h after oral administration. Serum was obtained by centrifuging the blood and samples were stored at −80 °C until analysis. Serum samples were processed using the LLE extraction mentioned in Section 4.6 and analyzed using the validated LC-MS/MS method. The non-compartment model was used to calculate the pharmacokinetic (PK) parameters for quercetin and t-res using WinNonlin 6.3 software (Pharsight Corporation, Saint Louis, MO, USA). The PK parameters were estimated, including Cmax, maximum plasma concentration; t1/2, half-life; Tmax, time to reach Cmax; CL/F, clearance and Vd/F, apparent volume of distribution. AUC0–t (area under the concentration curve from zero time point to the last time point) was determined with the trapezoidal rule up to the last measured plasma concentration, Clast. AUC0–∞ (AUC curve from zero time point to infinity) was determined by adding AUC0–t and Clast/Ke.

Plasma stability = assay type: in vitro ADME; settings: rat, 37 °C
Method: The preincubation of rat plasma was done for 5 min at 37 °C. After pre-incubation, quercetin and t-res were added to plasma at a concentration of 100 µg/mL, and reaction tubes were incubated for 3 h in a shaking water bath at 37 °C. Aliquots were collected at predetermined timepoints of 0, 5, 15, 30, 45, 60, 90, 120, and 180 min. Plasma samples were processed immediately using the extraction method mentioned in Section 4.6. The % remaining of the drug at various time intervals relative to the initial time point (time 0) was used to calculate the plasma stability.

[2] = Stability in rat serum under storage conditions (autosampler, benchtop, long-term, freeze-thaw); assay type: in vitro ADME; settings: for Autosampler stability, accuracy / Autosampler stability, measured conc. / Benchtop stability, accuracy / Benchtop stability, measured conc. / Freeze-thaw stability, accuracy / Freeze-thaw stability, measured conc. / Long-term stability, accuracy / Long-term stability, measured conc.: rat serum, n = 6; for Autosampler stability, accuracy / Autosampler stability, measured conc.: 4 ± 2 °C, 24 h; for Benchtop stability, accuracy / Benchtop stability, measured conc.: 24 ± 4 °C, 8 h; for Freeze-thaw stability, accuracy / Freeze-thaw stability, measured conc. / Long-term stability, accuracy / Long-term stability, measured conc.: −70 ± 10 °C; for Freeze-thaw stability, accuracy / Freeze-thaw stability, measured conc.: 3 cycles; for Long-term stability, accuracy / Long-term stability, measured conc.: 30 days
Method: Stability studies were performed using three different QC levels including LQC, MQC, and HQC with six replicates. The extracted serum samples were analyzed using different storage conditions including autosampler (4 ± 2 °C for 24 h), bench top stability (24 ± 4 °C for 8 h), and long-term stability (−70 ± 10 °C for 30 days). Freeze-thaw stability was evaluated after subjecting the samples to three cycles of freezing (−70 ± 10 °C for 12 h) and thawing. Stability samples were quantified against fresh calibration and QC samples. The accuracy and precision of stability samples should meet the acceptance criterion of ±15%.

[3] = rat, microsomes, 1 h
Method: (§2) The 0.8 mL reaction mixture was prepared using RLM at 0.5 mg/mL, 40 mM MgCl2, in 50 mM Tris-HCl buffer (pH 7.4). 100 µg/mL of quercetin and t-res was added to the reaction mixture and preincubated in a shaking water bath at 37 °C and 1 mM NADPH was added to the reaction milieu to initiate the reactions. Samples were collected at predetermined time points up to 60 min and processed for LC-MS/MS analysis [54].

[4] = set-up: method as in Meng-xiang Su et al. (2011) [47]; settings: rat plasma, oral, 0.6 mg/kg; ref Meng-xiang Su et al. (2011) [47]; cited from earlier work
[5] = Stability in simulated gastric fluid (SGF, pH 1.2); assay type: in vitro ADME; settings: 100 μg/mL, SGF pH 1.2, 37 °C, 0–60 min
Method: (§1) The stability of quercetin and t-res was tested at 100 μg/mL in simulated gastric (SGF, pH 1.2) and intestinal (SIF, pH 6.8) fluids (n = 3). The manufacturer’s protocol was followed to prepare biorelevant media with enzymes. Quercetin and t-res were exposed to SGF and SIF buffers with and without enzymes and incubated in a shaking water bath at 37 °C. 100 μL samples were collected at specific intervals (0–60 min for SGF and 0–180 min for SIF). At a concentration of 100 µg/mL samples were extracted using ACN containing I.S (1:2, v/v), vortexed for 5 min, and then centrifuged at 10,000 rpm for 5 min [52]. The supernatant of the samples was utilized for LC-MS/MS analysis. The % remaining of quercetin and t-res was calculated to determine the stability using Equation (1). (1) % Drug remaining=Concentration of drug at time t/Concentration of drug at time 0×100

[6] = Stability in simulated intestinal fluid (SIF, pH 6.8); assay type: in vitro ADME; settings: 100 μg/mL, SIF pH 6.8, 37 °C, 0–180 min
Method: as §1

[7] = set-up: method as in Dinesh Kumar V et al. (2014) [48]; settings: rat plasma, oral, 25 mg/kg, ref Dinesh Kumar V et al. (2014) [48], cited from earlier work
[8] = Metabolic stability in rat liver microsomes (RLM); settings: RLM 0.5 mg/mL, 100 µg/mL, 1 mM NADPH, up to 60 min
Method: as §2

[9] = nominal conc. 203 ng/mL (204 for trans-resveratrol)

Row | AUC(0-inf) ([1]; 400 mg/kg) [ng·h/mL] | AUC(0-t) ([1]; male SD rats) [ng·h/mL] | Cmax ([1]; male SD rats) [ng/mL] | Tmax ([1]; male SD rats) [h] | half-life ([1]; male SD rats) [h] | remaining at 3 h, 100 µg/mL (Plasma stability) [%] | Autosampler stability, accuracy ([2]; nominal conc. 30 ng/mL) [%] | Autosampler stability, measured conc. ([2]; nominal conc. 30 ng/mL) [ng/mL] | Autosampler stability, accuracy [2, 9] [%] | Autosampler stability, measured conc. [2, 9] [ng/mL] | Autosampler stability, accuracy ([2]; nominal conc. 375 ng/mL) [%] | Autosampler stability, measured conc. ([2]; nominal conc. 375 ng/mL) [ng/mL] | Benchtop stability, accuracy ([2]; nominal conc. 30 ng/mL) [%] | Benchtop stability, measured conc. ([2]; nominal conc. 30 ng/mL) [ng/mL] | Benchtop stability, accuracy [2, 9] [%] | Benchtop stability, measured conc. [2, 9] [ng/mL] | Benchtop stability, accuracy ([2]; nominal conc. 375 ng/mL) [%] | Benchtop stability, measured conc. ([2]; nominal conc. 375 ng/mL) [ng/mL] | Freeze-thaw stability, accuracy ([2]; nominal conc. 30 ng/mL) [%] | Freeze-thaw stability, accuracy [2, 9] [%] | Structure (SMILES) | further results
1 | 157 ± 21.1 | 145 ± 20.8 | 56.4 ± 13.1 | 0.58 ± 0.2 | 1.51 ± 0.4 | 84.4 | 94.53 | 28.36 ± 2.19 | 93.73 | 190.28 ± 13.20 | 99.51 | 373.15 ± 5.84 | 95.08 | 28.52 ± 3.05 | 93.36 | 189.53 ± 8.81 | 98.17 | 368.13 ± 12.29 | 91.32 | 93.32 | Oc1ccc(/C=C/c2cc(O)cc(O)c2)cc1 [trans-Resveratrol, trans-resveratrol] | Freeze-thaw stability, measured conc. [2, 9]: 189.43 ± 17.82 ng/mL; Freeze-thaw stability, accuracy ([2]; nominal conc. 375 ng/mL): 98.11%; Freeze-thaw stability, measured conc. ([2]; nominal conc. 375 ng/mL): 367.92 ± 11.94 ng/mL; Long-term stability, accuracy ([2]; nominal conc. 30 ng/mL): 101.68%; Long-term stability, measured conc. ([2]; nominal conc. 30 ng/mL): 30.50 ± 2.53 ng/mL; Long-term stability, accuracy [2, 9]: 93.14%; Long-term stability, measured conc. [2, 9]: 189.08 ± 14.18 ng/mL; Long-term stability, accuracy ([2]; nominal conc. 375 ng/mL): 97.67%; Long-term stability, measured conc. ([2]; nominal conc. 375 ng/mL): 366.25 ± 11.38 ng/mL; Phase I metabolism in RLM [3]: no phase I metabolism was observed; Phase I metabolism in RLM ([3]; 100 µg/mL, pH 7.4): no phase-1 metabolism observed; AUC(0–t) [4]: 2835 ± 1655 ng·min/mL; Cmax [4]: 23 ± 8 ng/mL; half-life [4]: 0.6 ± 0.1 h
2 | 471 ± 51.5 | 447 ± 47 | 57.6 ± 14.3 | 1.17 ± 0.41 | 4.91 ± 0.69 | 83.4 | 92.56 | 27.77 ± 1.50 | 89.32 | 181.31 ± 8.65 | 99.44 | 372.92 ± 2.21 | 90.29 | 27.09 ± 1.67 | 90.96 | 184.64 ± 7.16 | 98.96 | 371.12 ± 2.43 | 98.12 | 93.68 | O=c1c(O)c(-c2ccc(O)c(O)c2)oc2cc(O)cc(O)c12 [Quercetin] | AUC0–∞ ([1]; male SD rats, 400 mg/kg): 474.23 ± 51.49 ng·h/mL; Stability in SGF [5]: Moderate instability; Stability in SIF [6]: stable; Stability in rat serum at variable storage conditions ([2]; autosampler, benchtop, freeze-thaw, long-term): stable; Freeze-thaw stability, measured conc. ([2]; nominal conc. 30 ng/mL): 29.44 ± 2.73 ng/mL; Freeze-thaw stability, measured conc. [2, 9]: 190.17 ± 8.97 ng/mL; Freeze-thaw stability, accuracy ([2]; nominal conc. 375 ng/mL): 98.63%; Freeze-thaw stability, measured conc. ([2]; nominal conc. 375 ng/mL): 369.86 ± 4.43 ng/mL; Long-term stability, accuracy ([2]; nominal conc. 30 ng/mL): 100.22%; Long-term stability, measured conc. ([2]; nominal conc. 30 ng/mL): 30.07 ± 2.06 ng/mL; Long-term stability, accuracy [2, 9]: 98.38%; Long-term stability, measured conc. [2, 9]: 199.71 ± 8.70 ng/mL; Long-term stability, accuracy ([2]; nominal conc. 375 ng/mL): 99.48%; Long-term stability, measured conc. ([2]; nominal conc. 375 ng/mL): 373.05 ± 10.65 ng/mL; AUC(0–t) [7]: 3283.75 ng·h/mL; Tmax [7]: 4.00; plasma half-life [7]: 4.96 h; Cmax ([7]; in ng/mL): 369.20; % remaining in RLM [8]: 53.78
